Values joined by “and” are separate entries in the source; they are usually repeats but may differ in a detail not shown here. Equal values may be shown once.
Assays:
[1] = target: GRK4 (Homo sapiens, UniProt P32298); assay: biochemical; conditions: read-out: % enzyme activity, 1 μM; Run 1, Run 2
[2] = target: LYN B (Homo sapiens, UniProt P07948); conditions: 1 μM; Run 1, Run 2
[3] = target: ERK5/MAPK7 (Homo sapiens, UniProt Q13164); conditions: 1 μM; Run 1, Run 2
[4] = tested on: MINK/MINK1
[5] = target: T1, IKKb/IKBKB (Homo sapiens, UniProt O14920); conditions: 1 μM; Run 1, Run 2
T1 sequence (O14920 1-756): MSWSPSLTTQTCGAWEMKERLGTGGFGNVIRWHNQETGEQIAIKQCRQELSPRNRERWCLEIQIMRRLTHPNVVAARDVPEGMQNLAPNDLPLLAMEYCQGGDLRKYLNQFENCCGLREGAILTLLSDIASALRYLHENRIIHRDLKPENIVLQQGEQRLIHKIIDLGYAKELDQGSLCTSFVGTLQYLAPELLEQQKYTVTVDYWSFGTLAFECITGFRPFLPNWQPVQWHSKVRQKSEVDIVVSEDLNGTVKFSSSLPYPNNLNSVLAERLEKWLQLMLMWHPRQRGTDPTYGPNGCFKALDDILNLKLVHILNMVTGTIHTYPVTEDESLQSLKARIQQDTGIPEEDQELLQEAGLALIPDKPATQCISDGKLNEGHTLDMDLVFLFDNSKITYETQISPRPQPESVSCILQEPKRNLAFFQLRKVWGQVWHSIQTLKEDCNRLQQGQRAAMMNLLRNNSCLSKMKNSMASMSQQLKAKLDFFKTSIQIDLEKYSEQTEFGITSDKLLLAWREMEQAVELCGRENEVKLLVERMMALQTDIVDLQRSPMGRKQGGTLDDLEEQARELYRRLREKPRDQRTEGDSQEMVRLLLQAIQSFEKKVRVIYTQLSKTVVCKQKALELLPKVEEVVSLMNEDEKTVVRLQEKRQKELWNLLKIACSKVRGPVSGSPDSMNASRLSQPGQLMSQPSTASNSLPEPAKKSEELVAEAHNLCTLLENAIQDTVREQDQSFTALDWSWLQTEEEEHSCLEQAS

[6] = target: FYN (Homo sapiens, UniProt P06241); assay: biochemical; conditions: read-out: % enzyme activity, 1 μM; Run 1, Run 2
[7] = target: PAK2 (Homo sapiens, UniProt Q13177); assay: biochemical; conditions: read-out: % enzyme activity, 1 μM; Run 1, Run 2
[8] = target: JAK1 (Homo sapiens, UniProt P23458); assay: biochemical; conditions: read-out: % enzyme activity, 1 μM; Run 1, Run 2
[9] = target: ROCK2 (Homo sapiens, UniProt O75116); assay: biochemical; conditions: read-out: % enzyme activity, 1 μM; Run 1, Run 2
[10] = target: AKT3 (Homo sapiens, UniProt Q9Y243); conditions: 1 μM; Run 1, Run 2
[11] = target: T2, MYLK3 (Homo sapiens, UniProt Q32MK0); assay: biochemical; conditions: read-out: % enzyme activity, 1 μM; Run 1, Run 2
T2 sequence (Q32MK0 1-819): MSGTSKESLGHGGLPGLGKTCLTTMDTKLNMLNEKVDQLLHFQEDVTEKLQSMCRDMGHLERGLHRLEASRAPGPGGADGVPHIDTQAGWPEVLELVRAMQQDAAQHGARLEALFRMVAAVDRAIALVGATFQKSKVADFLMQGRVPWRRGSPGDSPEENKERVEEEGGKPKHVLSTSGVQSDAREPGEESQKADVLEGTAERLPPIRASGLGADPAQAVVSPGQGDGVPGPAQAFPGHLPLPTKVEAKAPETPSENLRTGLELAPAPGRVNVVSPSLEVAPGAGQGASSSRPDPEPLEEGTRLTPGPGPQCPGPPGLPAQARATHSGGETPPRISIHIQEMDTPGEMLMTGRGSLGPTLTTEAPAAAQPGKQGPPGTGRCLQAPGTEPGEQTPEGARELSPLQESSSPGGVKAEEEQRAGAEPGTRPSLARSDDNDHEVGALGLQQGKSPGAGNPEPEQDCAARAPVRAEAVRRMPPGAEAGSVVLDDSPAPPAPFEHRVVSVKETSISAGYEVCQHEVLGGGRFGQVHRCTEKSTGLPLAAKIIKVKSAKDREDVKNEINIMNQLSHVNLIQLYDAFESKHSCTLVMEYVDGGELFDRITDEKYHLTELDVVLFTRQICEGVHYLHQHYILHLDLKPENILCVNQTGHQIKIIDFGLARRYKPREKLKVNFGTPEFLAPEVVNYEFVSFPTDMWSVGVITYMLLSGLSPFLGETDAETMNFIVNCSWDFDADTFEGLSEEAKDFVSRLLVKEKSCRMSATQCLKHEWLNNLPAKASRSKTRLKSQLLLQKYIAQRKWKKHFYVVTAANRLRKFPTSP

[12] = target: T3, GRK2 (Homo sapiens, UniProt P25098); assay: biochemical; conditions: read-out: % enzyme activity, 1 μM; Run 1, Run 2
T3 sequence (P25098 1-689): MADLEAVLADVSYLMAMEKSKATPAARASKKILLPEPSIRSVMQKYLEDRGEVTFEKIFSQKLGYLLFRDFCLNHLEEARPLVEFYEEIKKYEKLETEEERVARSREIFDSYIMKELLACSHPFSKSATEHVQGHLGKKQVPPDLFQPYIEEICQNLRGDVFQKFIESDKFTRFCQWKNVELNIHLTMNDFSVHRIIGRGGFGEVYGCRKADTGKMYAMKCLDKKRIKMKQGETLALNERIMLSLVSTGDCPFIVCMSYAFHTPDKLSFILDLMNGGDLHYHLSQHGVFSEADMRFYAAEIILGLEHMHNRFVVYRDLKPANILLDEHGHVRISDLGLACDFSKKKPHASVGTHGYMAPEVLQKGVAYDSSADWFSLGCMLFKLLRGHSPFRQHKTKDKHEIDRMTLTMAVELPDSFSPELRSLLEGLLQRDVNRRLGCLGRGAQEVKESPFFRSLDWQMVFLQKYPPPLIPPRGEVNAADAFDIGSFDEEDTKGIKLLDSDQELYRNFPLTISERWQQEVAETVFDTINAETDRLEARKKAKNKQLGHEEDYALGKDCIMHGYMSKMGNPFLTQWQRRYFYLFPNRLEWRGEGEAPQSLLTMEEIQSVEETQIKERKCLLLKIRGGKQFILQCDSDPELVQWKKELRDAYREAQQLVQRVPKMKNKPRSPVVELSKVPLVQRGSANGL

[13] = target: CAMK1d (Homo sapiens, UniProt Q8IU85); assay: biochemical; conditions: read-out: % enzyme activity, 1 μM; Run 1, Run 2
[14] = target: ERN2/IRE2 (Homo sapiens, UniProt Q76MJ5); conditions: 1 μM; Run 1, Run 2

CAMK1d, sequence (Q8IU85 whole entry): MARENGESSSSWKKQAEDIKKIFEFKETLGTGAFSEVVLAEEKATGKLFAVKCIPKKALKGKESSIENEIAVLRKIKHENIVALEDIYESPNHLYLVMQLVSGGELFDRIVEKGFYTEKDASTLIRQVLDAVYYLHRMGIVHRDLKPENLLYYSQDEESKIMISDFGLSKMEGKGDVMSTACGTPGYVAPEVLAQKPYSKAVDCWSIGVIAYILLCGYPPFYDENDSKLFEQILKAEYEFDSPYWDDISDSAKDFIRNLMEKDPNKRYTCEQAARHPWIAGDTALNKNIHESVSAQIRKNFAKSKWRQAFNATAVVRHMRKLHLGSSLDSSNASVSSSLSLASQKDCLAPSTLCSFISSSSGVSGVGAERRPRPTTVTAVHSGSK
GRK4, sequence (P32298 whole entry): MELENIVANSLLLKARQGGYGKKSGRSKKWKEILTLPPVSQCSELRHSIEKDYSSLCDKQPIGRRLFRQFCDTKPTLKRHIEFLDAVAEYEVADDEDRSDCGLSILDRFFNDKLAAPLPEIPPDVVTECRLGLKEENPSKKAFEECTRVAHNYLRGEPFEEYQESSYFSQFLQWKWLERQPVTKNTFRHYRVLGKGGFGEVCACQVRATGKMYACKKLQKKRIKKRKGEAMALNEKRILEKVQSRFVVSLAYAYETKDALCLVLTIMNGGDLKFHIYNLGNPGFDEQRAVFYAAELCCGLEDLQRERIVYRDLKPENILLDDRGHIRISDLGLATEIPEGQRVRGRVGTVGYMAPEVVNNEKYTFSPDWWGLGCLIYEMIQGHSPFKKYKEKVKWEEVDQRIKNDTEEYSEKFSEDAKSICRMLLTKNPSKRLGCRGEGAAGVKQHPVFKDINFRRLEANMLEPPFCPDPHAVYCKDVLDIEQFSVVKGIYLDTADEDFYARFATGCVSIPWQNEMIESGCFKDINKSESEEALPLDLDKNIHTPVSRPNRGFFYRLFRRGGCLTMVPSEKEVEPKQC
LYN B, sequence (P07948 1-491 isoform P07948-2): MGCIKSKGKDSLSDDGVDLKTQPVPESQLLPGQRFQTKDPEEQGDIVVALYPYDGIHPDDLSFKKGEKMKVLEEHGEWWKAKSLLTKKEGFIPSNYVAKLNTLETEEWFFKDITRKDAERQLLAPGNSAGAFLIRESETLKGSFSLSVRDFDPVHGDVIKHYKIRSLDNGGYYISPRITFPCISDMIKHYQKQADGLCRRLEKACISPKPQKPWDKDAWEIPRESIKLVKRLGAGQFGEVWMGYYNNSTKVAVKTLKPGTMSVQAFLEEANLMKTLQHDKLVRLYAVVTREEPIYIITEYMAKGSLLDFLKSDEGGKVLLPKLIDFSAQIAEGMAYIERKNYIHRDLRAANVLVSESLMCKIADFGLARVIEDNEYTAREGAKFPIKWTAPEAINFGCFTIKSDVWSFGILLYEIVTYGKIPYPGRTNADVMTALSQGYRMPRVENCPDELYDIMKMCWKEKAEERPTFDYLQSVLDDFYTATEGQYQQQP
AKT3, sequence (Q9Y243 whole entry): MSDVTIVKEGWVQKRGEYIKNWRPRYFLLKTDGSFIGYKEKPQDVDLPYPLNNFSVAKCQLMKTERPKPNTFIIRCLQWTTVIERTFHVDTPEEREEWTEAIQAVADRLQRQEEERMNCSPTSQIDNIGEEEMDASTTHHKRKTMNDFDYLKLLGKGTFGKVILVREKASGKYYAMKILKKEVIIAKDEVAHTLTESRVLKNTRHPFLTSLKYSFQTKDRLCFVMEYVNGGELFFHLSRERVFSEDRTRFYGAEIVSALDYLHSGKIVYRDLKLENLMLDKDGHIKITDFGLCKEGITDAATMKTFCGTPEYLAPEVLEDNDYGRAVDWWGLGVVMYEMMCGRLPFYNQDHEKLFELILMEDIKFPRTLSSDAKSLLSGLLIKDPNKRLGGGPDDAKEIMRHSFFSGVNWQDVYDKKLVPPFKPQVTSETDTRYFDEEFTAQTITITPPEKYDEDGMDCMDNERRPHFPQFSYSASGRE
JAK1, sequence (P23458 whole entry): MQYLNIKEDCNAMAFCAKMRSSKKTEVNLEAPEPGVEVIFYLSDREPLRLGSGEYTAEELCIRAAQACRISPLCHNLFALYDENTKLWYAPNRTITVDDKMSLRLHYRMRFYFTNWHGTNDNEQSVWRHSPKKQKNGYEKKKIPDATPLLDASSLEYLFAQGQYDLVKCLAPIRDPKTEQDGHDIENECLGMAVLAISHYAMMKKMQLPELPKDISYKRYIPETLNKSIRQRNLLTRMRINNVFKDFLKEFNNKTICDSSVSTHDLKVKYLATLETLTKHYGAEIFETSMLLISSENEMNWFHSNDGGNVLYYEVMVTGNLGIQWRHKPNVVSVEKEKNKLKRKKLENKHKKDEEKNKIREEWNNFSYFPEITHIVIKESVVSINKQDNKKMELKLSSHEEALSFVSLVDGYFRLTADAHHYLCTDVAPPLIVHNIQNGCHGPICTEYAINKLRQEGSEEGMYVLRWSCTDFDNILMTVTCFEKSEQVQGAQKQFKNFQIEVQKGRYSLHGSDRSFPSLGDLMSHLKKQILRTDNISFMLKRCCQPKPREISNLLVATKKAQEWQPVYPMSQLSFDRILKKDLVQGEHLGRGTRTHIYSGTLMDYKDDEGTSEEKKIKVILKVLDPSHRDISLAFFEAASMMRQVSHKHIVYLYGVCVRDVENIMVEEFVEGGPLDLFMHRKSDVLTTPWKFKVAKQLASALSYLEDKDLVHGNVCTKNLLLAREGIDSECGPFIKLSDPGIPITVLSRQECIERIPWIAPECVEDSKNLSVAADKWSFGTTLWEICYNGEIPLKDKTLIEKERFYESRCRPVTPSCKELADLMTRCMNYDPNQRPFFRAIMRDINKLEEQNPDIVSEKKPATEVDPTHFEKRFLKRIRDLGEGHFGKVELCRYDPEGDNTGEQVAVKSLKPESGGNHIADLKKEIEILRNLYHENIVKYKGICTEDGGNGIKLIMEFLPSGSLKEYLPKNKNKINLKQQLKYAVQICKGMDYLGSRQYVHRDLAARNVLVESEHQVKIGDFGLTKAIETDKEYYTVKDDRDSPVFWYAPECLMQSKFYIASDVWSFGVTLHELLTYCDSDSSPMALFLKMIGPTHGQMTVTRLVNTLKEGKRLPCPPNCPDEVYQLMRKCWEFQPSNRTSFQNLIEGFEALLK
ROCK2, sequence (O75116 whole entry): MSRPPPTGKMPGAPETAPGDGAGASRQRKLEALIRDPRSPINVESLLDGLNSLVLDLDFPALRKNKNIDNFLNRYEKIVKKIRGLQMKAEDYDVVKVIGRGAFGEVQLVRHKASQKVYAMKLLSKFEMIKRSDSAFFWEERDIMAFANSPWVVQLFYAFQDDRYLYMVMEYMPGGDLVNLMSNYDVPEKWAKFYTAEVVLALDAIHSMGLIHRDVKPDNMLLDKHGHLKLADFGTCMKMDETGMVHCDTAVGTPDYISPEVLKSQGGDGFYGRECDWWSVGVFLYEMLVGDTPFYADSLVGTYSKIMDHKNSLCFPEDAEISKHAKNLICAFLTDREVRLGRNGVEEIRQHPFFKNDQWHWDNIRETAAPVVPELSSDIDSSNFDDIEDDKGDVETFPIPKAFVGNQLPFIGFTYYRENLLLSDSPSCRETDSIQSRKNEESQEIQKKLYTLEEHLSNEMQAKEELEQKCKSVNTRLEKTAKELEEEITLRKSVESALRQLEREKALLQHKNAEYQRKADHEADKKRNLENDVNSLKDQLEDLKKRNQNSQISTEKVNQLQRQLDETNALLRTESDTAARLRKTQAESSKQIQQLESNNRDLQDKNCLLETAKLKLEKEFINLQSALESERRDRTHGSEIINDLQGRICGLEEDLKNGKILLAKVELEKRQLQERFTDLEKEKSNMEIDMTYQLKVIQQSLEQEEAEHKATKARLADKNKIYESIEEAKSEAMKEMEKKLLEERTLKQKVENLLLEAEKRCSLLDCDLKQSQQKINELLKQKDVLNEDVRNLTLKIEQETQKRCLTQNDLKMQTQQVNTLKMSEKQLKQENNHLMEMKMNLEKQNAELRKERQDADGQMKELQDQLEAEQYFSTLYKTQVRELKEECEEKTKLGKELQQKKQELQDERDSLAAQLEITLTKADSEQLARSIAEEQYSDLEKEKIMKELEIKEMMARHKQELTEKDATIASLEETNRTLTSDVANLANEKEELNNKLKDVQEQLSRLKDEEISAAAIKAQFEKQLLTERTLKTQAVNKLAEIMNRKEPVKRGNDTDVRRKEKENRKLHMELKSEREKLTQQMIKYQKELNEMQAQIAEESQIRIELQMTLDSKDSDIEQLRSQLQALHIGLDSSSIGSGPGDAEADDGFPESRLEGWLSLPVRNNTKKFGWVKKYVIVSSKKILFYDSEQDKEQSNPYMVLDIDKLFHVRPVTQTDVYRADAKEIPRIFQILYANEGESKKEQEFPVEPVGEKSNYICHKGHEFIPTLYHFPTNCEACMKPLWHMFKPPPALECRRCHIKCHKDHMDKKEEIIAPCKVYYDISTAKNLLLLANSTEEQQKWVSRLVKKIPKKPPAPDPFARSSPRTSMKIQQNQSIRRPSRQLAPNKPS
FYN, sequence (P06241 whole entry): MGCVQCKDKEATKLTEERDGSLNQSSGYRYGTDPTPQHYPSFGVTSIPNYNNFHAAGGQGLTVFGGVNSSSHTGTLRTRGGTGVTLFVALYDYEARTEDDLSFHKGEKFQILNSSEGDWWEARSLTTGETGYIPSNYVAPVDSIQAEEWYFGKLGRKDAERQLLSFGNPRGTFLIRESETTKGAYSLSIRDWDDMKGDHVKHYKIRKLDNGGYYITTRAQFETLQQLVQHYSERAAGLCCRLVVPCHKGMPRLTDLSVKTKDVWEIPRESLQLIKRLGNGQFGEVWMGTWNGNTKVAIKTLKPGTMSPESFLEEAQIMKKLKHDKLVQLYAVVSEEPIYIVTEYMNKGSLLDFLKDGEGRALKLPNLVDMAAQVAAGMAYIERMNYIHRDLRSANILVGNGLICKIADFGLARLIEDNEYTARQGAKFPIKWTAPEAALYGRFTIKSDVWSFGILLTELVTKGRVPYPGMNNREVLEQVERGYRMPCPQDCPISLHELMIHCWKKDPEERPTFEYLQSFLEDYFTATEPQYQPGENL

Structure (SMILES) | remaining activity at 1 µM [1] [%] | % enzyme activity [2] [%] | % enzyme activity [3] [%] | % enzyme activity at 1 μM [4] | % enzyme activity [5] [%] | remaining activity at 1 µM [6] [%] | remaining activity at 1 µM [7] [%] | remaining activity at 1 µM [8] [%] | remaining activity at 1 µM [9] [%] | % enzyme activity [10] [%] | remaining activity at 1 µM [11] [%] | remaining activity at 1 µM [12] [%] | remaining activity at 1 µM [13] [%] | % enzyme activity [14] [%]
COc1cc(-c2cncc(-c3ccc(N4CCN(C)CC4)cc3)c2C)cc(F)c1C(N)=O [Compound 26a, 2-Fluoro-6-methoxy-4-(4-methyl-5-(4-(4-methylpiperazin-1-yl)phenyl)pyridin-3-yl)benzamide] | 80.4 | 96.56 | 92.77 | 24.1% and 22.6% | 101.39 | 99.9 | 101 | 102 | 116 | 94.73 | 99.8 | 105 | 98.5 | 97.32
COc1cc(-c2cncc(-c3ccc(N4C[C@@H](C)N(C)[C@@H](C)C4)cc3)c2C)cc(F)c1C(N)=O [Compound 26c, 2-Fluoro-6-methoxy-4-(4-methyl-5-(4-((3R,5S)-3,4,5-trimethylpiperazin-1-yl)phenyl)pyridin-3-yl)benzamide] | 97.1 | 97.80 | 98.01 | 30.2% and 29.6% | 100.59 | 97 | 104 | 101 | 101 | 98.56 | 100 | 101 | 99.9 | 96.29

— publication PMC8213057, “Targeting ALK2: An Open Science Approach to Developing Therapeutics for the Treatment of Diffuse Intrinsic Pontine Glioma” (Journal of Medicinal Chemistry, 2020)
